What all share (format): cell-based
Test [1] has as its system Streptococcus pneumoniae. As for the experimental part: The peptides were examined for antibacterial efficacy against Staphylococcus aureus. To test the efficacy of peptides, dilutions of test peptides or PBS (for use as a control) were prepared in LB broth, and 100 μl aliquots of these placed in 96-well plates. A vial of planktonic bacterial stock was thawed in a 37° C. incubator and diluted to the level previously determined which would produce log phase growth after overnight incubation (see above). 25 μl of this bacterial dilution was then added to the test wells (some wells containing LB broth without peptide were left without any bacterial inoculation, these being used as a blank). After overnight growth, the concentration of bacteria in individual wells was assessed by measuring absorbance at 620 nm, in a microplate spectrophotometer. The average absorbance of wells for specific concentrations of peptides was calculated, and from this the percentage inhibition (relative to untreated wells) was also calculated and plotted against concentration (along with an estimate of error on that % inhibition). […] The inventor constructed an expanded library of peptides derived from either apolipoprotein B or apolipoprotein E in order to further evaluate polypeptides in accordance with the invention. Further experiments were then conducted to investigate the antibacterial activity of this peptide library against the bacteria P. aeroginosa, S. aureus and S. pneumoniae. The methods used to determine the IC50 values for each peptide were as described in the Example 1.

The subject of test [2] is Pseudomonas aeruginosa. The protocol: To test the effect of treatment of the polypeptides according to the invention by autoclaving, a 400 μM stock solution of GIN1p was prepared in PBS, and 420 μl aliquots were placed in four Eppendorf tubes (with screw lids). After securing the lids, two of the tubes were loaded into a metal rack held within a Pyrex beaker, and placed into a Prestige Medical Clinical Autoclave. The remaining two tubes were left untreated, as a control. The autoclave was then activated, and underwent two autoclave cycles, each of which involved exposure of the peptide solutions to 126° C. for 11 min. Finally, efficacy of the two autoclaved and the two control peptide samples against P. aeruginosa was tested as previously described.
Referring to FIG. 7, there is shown the level of growth of Pseudomonas aeruginosa after exposure of a bacterial inoculum to various concentrations of GIN 1p (a polypeptide in accordance with the present invention) which had been either autoclaved or without autoclaving, expressed as a % of growth for untreated bacteria. Accordingly, polypeptides according to the invention are therefore suitable for use with products, which would normally be sterilised by autoclaving during the manufacturing procedure.

In test [3] the test system is Pseudomonas aeruginosa (ATCC strain 9027). To be noted: summary in description. The protocol: Bacterial Stocks—ATCC derived stock bacteria were obtained from Oxoid Limited. Pseudomonas aeruginosa (ATCC strain 9027) or Staphylococcus aureus (ATCC strain 6538P) were obtained in ‘Cultiloop’ format. Stocks were prepared by inoculating 20 ml of LB broth with a single Cultiloop, and incubating overnight at 37° C. Cells present after overnight incubation were harvested by removing larger aggregates by centrifugation (3000 g, 10 minutes), and withdrawing 16 ml of the supernatant, which was likely to contain mainly planktonic bacteria. To this, 4 ml of sterile glycerol was added (the latter having been sterilised by autoclaving). The resultant suspension was divided between 15× 1 ml cryovials before freezing at −85° C.
Preliminary experiments were carried out to estimate the amount to dilute bacterial stocks which when on addition of 25 μl of diluted stock to 100 μl of fresh LB broth would result in bacteria in log phase growth after overnight incubation at 37° C.
The peptides were examined for antibacterial efficacy against Staphylococcus aureus. To test the efficacy of peptides, dilutions of test peptides or PBS (for use as a control) were prepared in LB broth, and 100 μl aliquots of these placed in 96-well plates. A vial of planktonic bacterial stock was thawed in a 37° C. incubator and diluted to the level previously determined which would produce log phase growth after overnight incubation (see above). 25 μl of this bacterial dilution was then added to the test wells (some wells containing LB broth without peptide were left without any bacterial inoculation, these being used as a blank). After overnight growth, the concentration of bacteria in individual wells was assessed by measuring absorbance at 620 nm, in a microplate spectrophotometer. The average absorbance of wells for specific concentrations of peptides was calculated, and from this the percentage inhibition (relative to untreated wells) was also calculated and plotted against concentration (along with an estimate of error on that % inhibition).
Peptides in accordance with the invention were also examined for antibacterial efficacy against Pseudomonas aeruginosa using the same technique as described above to calculate the IC50 values.
Points were obtained by dividing the average for six treated wells by the average for six untreated wells, and bars show an estimate of the error for these calculated values.
The inventor constructed an expanded library of peptides derived from either apolipoprotein B or apolipoprotein E in order to further evaluate polypeptides in accordance with the invention. Further experiments were then conducted to investigate the antibacterial activity of this peptide library against the bacteria P. aeroginosa, S. aureus and S. pneumoniae. The methods used to determine the IC50 values for each peptide were as described in the Example 1.

This is an account of results in US8524861B2, “Treatment of bacterial infections” (priority 2004, dated 2013).

As for Ac-LRKLRKRLLLRKLRKRLL-NH2 [MU_10], the IC50 – broadly, the concentration that inhibits the measured activity by half – is 45 µM in test [1] and roughly 2 µM in test [2]. In addition, the “Effectiveness against Pseudomonadales, in particular P. aeruginosa, in words” value in test [3] is recorded as “particularly effective”.
